Laboratory results as given in patent publication US8541455B2, “Derivatives of 2-pyridin-2-yl-pyrazol-3(2H)-one, preparation and therapeutic use thereof as HIF activators” (Sanofi, priority 2008, dated 2013).
Structures can show the parent of a compound that is named as a salt.

Row | Structure (SMILES) | melting point [°C]
1 | CCN(c1ccccc1)S(=O)(=O)c1ccc(-n2[nH]cc(Cc3cncc(OC)c3)c2=O)nc1.Cl | 136
2 | CCNS(=O)(=O)c1ccc(-n2[nH]c(C)c(Cc3cccnc3)c2=O)nc1 (as salt: HCl) [Compound 89] | 196
3 | Cc1[nH]n(-c2ccc(S(=O)(=O)Nc3ccccc3)cn2)c(=O)c1Cc1cccnc1 (as salt: HCl) [Compound 90] | 154
4 | CCN(c1ccccc1)S(=O)(=O)c1ccc(-n2[nH]cc(Cc3ccccc3)c2=O)nc1 (as salt: HCl) [Compound 93, 6-(4-benzyl-5-oxo-2,5-dihydro-1H-pyrazol-1-yl)-N-ethyl-N-phenylpyridine-3-sulfonamide] | 180
5 | CCN(c1ccccc1)S(=O)(=O)c1ccc(-n2[nH]c(C)c(CC3CCN(C)CC3)c2=O)nc1 (as salt: HCl) [Compound 94] | 150
6 | Cc1[nH]n(-c2ccc(S(=O)(=O)N(C)C3CC3)cn2)c(=O)c1Cc1cccnc1 (as salt: HCl) [Compound 95] | 138
7 | COc1cncc(Cc2c(C)[nH]n(-c3ccc(S(=O)(=O)NC(C)(C)C)cn3)c2=O)c1 (as salt: HCl) [Compound 96] | 150
8 | CCN(c1ccccc1)S(=O)(=O)c1ccc(-n2[nH]cc(Cc3cccnc3)c2=O)nc1 (as salt: HCl) [Compound 99] | 142
9 | CCN(C1CCCC1)S(=O)(=O)c1ccc(-n2[nH]cc(Cc3cccnc3)c2=O)nc1 (as salt: HCl) [Compound 115] | 110
10 | CN(C1CCCC1)S(=O)(=O)c1ccc(-n2[nH]cc(Cc3cccnc3)c2=O)nc1 (as salt: HCl) [Compound 117] | 124
11 | CCN(C1CCCC1)S(=O)(=O)c1ccc(-n2[nH]cc(Cc3ccncc3)c2=O)nc1 (as salt: HCl) [Compound 119] | 115
12 | CN(C1CCCC1)S(=O)(=O)c1ccc(-n2[nH]cc(Cc3ccncc3)c2=O)nc1 (as salt: HCl) [Compound 120] | 130
13 | CN(C)CCCN(C1CCCC1)S(=O)(=O)c1ccc(-n2[nH]cc(Cc3ccccc3)c2=O)nc1 (as salt: HCl) [Compound 123, 6-(4-benzyl-5-oxo-2,5-dihydro-1H-pyrazol-1-yl)-N-cyclopentyl-N-[3-(dimethylamino)propyl]pyridine-3-sulfonamide hydrochloride] | 230
14 | COC(=O)CN(C1CCCC1)S(=O)(=O)c1ccc(-n2[nH]cc(Cc3cccnc3)c2=O)nc1 (as salt: HCl) [Compound 128, methyl N-cyclopentyl-N-({6-[5-oxo-4-(pyridin-3-ylmethyl)-2,5-dihydro-1H-pyrazol-1-yl]pyridin-3-yl}sulfonyl)glycinate hydrochloride] | 110
15 | COC(=O)[C@H]1CCC[C@H]1N(C)S(=O)(=O)c1ccc(-n2[nH]cc(Cc3cccnc3)c2=O)nc1 (as salt: HCl) [Compound 131] | 156
16 | CC(C)(C)CNS(=O)(=O)c1ccc(-n2[nH]cc(Cc3cccnc3)c2=O)nc1 (as salt: HCl) [Compound 136] | 123
17 | CCC(C)(C)NS(=O)(=O)c1ccc(-n2[nH]cc(Cc3cccnc3)c2=O)nc1 (as salt: HCl) [Compound 137] | 126
18 | CN1CCC(N(C)S(=O)(=O)c2ccc(-n3[nH]cc(Cc4ccccc4)c3=O)nc2)C1 (centres unmarked) (as salt: HCl) [Compound 139] | 130
19 | COC(C)(C)CNS(=O)(=O)c1ccc(-n2[nH]cc(Cc3ccccc3)c2=O)nc1 (as salt: HCl) [Compound 141] | 194
20 | COc1ccncc1Cc1c[nH]n(-c2ccc(S(=O)(=O)N(C)C3CCCC3)cn2)c1=O (as salt: HCl) [Compound 144] | 40
21 | CN(C)CC(C)(C)NS(=O)(=O)c1ccc(-n2[nH]cc(Cc3ccccc3)c2=O)nc1 (as salt: HCl) [Compound 152] | 230
22 | COC(=O)CC(c1cccnc1)c1c[nH]n(-c2ccc(S(=O)(=O)NC(C)(C)C)cn2)c1=O (centres unmarked) (as salt: HCl) [Compound 154, methyl 3-(2-[5-(tert-butylsulfamoyl)pyridin-2-yl]-3-oxo-2,3-dihydro-1H-pyrazol-4-yl)-3-(pyridin-3-yl)propanoate] | 146
23 | COC(=O)c1ccc(-n2[nH]c(C)c(Cc3ccccc3Cl)c2=O)nc1 (as salt: HCl) [Compound 170] | 258
24 | Cc1[nH]n(-c2ccccn2)c(=O)c1Cc1ccncc1 (as salt: HCl) [Compound 176] | 208
25 | Cc1[nH]n(-c2ccccn2)c(=O)c1Cc1cccc(N(C)C)c1 (as salt: HCl) [Compound 190] | 132
26 | CC(C)(C)OC(=O)c1ccc(-n2[nH]cc(Cc3cccnc3)c2=O)nc1 (as salt: HCl) [Compound 202] | 160
27 | CCN(c1ccccc1)S(=O)(=O)c1ccc(-n2[nH]c(C)c(Cc3cccnc3)c2=O)nc1 (as salt: hydrochloride) [Compound 43] | 128

Row | Structure (SMILES) | melting point [°C]
28 | CCN(c1ccccc1)S(=O)(=O)c1ccc(-n2[nH]c(C)c(Cc3cccc(OCCN(C)C)c3)c2=O)nc1 (as salt: hydrochloride) [Compound 56, 6-(4-{3-[2-(dimethylamino)ethoxy]benzyl}-3-methyl-5-oxo-2,5-dihydro-1H-pyrazol-1-yl)-N-ethyl-N-phenylpyridine-3-sulfonamide hydrochloride] | 124
29 | Cc1[nH]n(-c2ccc(S(=O)(=O)N(C(C)C)C(C)C)cn2)c(=O)c1Cc1ccc(Cl)cc1Cl [Compound 15] | 226
30 | CCN(c1ccccc1)S(=O)(=O)c1ccc(-n2[nH]c(C)c(Cc3ccc(OCCN(C)C)cc3)c2=O)nc1 [Compound 49] | 178
31 | CCN(c1ccccc1)S(=O)(=O)c1ccc(-n2[nH]c(C)c(Cc3ccc(N(C)C)cc3)c2=O)nc1 [Compound 50] | 182
32 | CCN(c1ccccc1)S(=O)(=O)c1ccc(-n2[nH]c(C)c(Cc3cccc(OC)c3)c2=O)nc1 [Compound 55] | 146
33 | CCN(c1ccccc1)S(=O)(=O)c1ccc(-n2[nH]c(C)c(Cc3ccccc3OC)c2=O)nc1 [Compound 57] | 108
34 | CCN(c1ccccc1)S(=O)(=O)c1ccc(-n2[nH]c(C)c(Cc3ccc(OCCOC)cc3)c2=O)nc1 [Compound 61] | 176
35 | Cc1[nH]n(-c2ccc(S(=O)(=O)N(C)C)cn2)c(=O)c1Cc1cccnc1 [Compound 66, N,N-dimethyl-6-[3-methyl-5-oxo-4-(pyridin-3-ylmethyl)-2,5-dihydro-1H-pyrazol-1-yl]pyridine-3-sulfonamide] | 212
36 | CCN(c1ccccc1)S(=O)(=O)c1ccc(-n2[nH]c(C)c(Cc3cccc(OC)n3)c2=O)nc1 [Compound 78] | 174
37 | CCN(c1ccccc1)S(=O)(=O)c1ccc(-n2[nH]c(C)c(Cc3cncc(OC)c3)c2=O)nc1 [Compound 86] | 138
38 | CCN(c1ccccc1)S(=O)(=O)c1ccc(-n2[nH]c(C)c(Cc3cncc(C#N)c3)c2=O)nc1 [Compound 97, 6-{4-[(5-cyanopyridin-3-yl)methyl]-3-methyl-5-oxo-2,5-dihydro-1H-pyrazol-1-yl}-N-ethyl-N-phenylpyridine-3-sulfonamide] | 164
39 | CC(C)(C)NS(=O)(=O)c1ccc(-n2[nH]cc(Cc3cccnc3)c2=O)nc1 [Compound 98A, N-tert-butyl-6-[5-oxo-4-(pyridin-3-ylmethyl)-2,5-dihydro-1H-pyrazol-1-yl]pyridine-3-sulfonamide] | 220
40 | CN(C(C)(C)C)S(=O)(=O)c1ccc(-n2[nH]cc(Cc3ccccc3)c2=O)nc1 [Compound 100] | 186
41 | COc1cncc(Cc2c(C)[nH]n(-c3ccc(S(=O)(=O)N(C)C(C)(C)C)cn3)c2=O)c1 [Compound 102] | 84
42 | CCN(c1ccccc1)S(=O)(=O)c1ccc(-n2[nH]c(C)c(Cc3ccc(C#N)nc3)c2=O)nc1 [Compound 103] | 120
43 | CCN(c1ccccc1)S(=O)(=O)c1ccc(-n2[nH]cc(CC(=O)N(C)C)c2=O)nc1 [Compound 105] | 168
44 | CCOC(=O)Cc1[nH]n(-c2ccc(S(=O)(=O)N(CC)c3ccccc3)cn2)c(=O)c1Cc1ccccc1 [Compound 106, ethyl (4-benzyl-1-{5-[ethyl(phenyl)sulfamoyl]pyridin-2-yl}-5-oxo-2,5-dihydro-1H-pyrazol-3-yl)acetate] | 156
45 | CCN(c1ccccc1)S(=O)(=O)c1ccc(-n2[nH]c(CC(=O)N(C)C)c(Cc3ccccc3)c2=O)nc1 [Compound 109] | 163
46 | CCN(c1ccccc1)S(=O)(=O)c1ccc(-n2[nH]cc(CCC(=O)O)c2=O)nc1 [Compound 110] | 214
47 | CCN(c1ccccc1)S(=O)(=O)c1ccc(-n2[nH]c(C)c(Cc3cccc(C(=O)OC)c3)c2=O)nc1 [Compound 111] | 172
48 | CCN(c1ccccc1)S(=O)(=O)c1ccc(-n2[nH]cc(CCC(=O)OC)c2=O)nc1 [Compound 112] | 128
49 | COC(=O)C(c1ccccc1)c1c[nH]n(-c2ccc(S(=O)(=O)NC(C)(C)C)cn2)c1=O (centres unmarked) [Compound 113, methyl {2-[5-(tert-butylsulfamoyl)pyridin-2-yl]-3-oxo-2,3-dihydro-1H-pyrazol-4-yl}(phenyl)acetate] | 66
50 | COC(=O)CC(c1ccccc1)c1c[nH]n(-c2ccc(S(=O)(=O)N(C)C3CCCC3)cn2)c1=O (centres unmarked) [Compound 114] | 80
51 | CCN(c1ccccc1)S(=O)(=O)c1ccc(-n2[nH]c(C)c(Cc3ccccc3C(=O)OC)c2=O)nc1 [Compound 116] | 146
52 | CCN(c1ccccc1)S(=O)(=O)c1ccc(-n2[nH]cc(CC3CCCC3)c2=O)nc1 [Compound 134] | 170
53 | CN([C@@H]1CC[C@H](CO)C1)S(=O)(=O)c1ccc(-n2[nH]cc(Cc3ccccc3)c2=O)nc1 [Compound 138, 6-(4-benzyl-5-oxo-2,5-dihydro-1H-pyrazol-1-yl)-N-[(1R,3S)-3-(hydroxymethyl)cyclopentyl]-N-methylpyridine-3-sulfonamide] | 108
